{"source": "patent US8853420B2", "about": "“Compounds” (Boehringer Ingelheim International GmbH, priority 2008, dated 2014)", "data": [{"biological_target": "T1, Xenopus laevis Aurora B/INCENP complex (Xenopus laevis, UniProt Q6DE08)", "T1 construct": "equipped at the N-terminal position with a GST tag (amino acids 60-361); GST (N, cleaved yes); made in house; host or cells: E. coli BL21 (DE3)", "T1 sequence (Q6DE08 60-361)": "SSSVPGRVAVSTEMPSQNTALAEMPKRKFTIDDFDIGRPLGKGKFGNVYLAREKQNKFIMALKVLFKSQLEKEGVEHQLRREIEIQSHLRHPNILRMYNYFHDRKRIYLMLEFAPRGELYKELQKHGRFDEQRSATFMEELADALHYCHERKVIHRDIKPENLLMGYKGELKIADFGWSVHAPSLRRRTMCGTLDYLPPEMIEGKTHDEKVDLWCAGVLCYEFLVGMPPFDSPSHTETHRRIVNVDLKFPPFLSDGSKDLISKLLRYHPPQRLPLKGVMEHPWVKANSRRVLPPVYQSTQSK", "T1 sequence (O13024 790-847 partner limits assumed)": "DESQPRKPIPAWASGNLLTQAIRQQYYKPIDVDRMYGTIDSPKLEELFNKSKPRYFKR", "assay": "Aurora-B kinase assay (radioactive enzyme inhibition assay)", "assay_type": "biochemical", "conditions": "test substance at 1 μM; percentage of the positive control (maximum value without test substance)", "description": "Example Aurora-B Kinase Assay\nA radioactive enzyme inhibition assay was developed using E. coli-expressed recombinant Xenopus laevis Aurora B wild-type protein equipped at the N-terminal position with a GST tag (amino acids 60-361) in a complex with Xenopus laevis INCENP (amino acids 790-847), which is obtained from bacteria and purified. In equivalent manner a Xenopus laevis Aurora B mutant (G96V) in a complex with Xenopus laevis INCENP^790-847 may also be used.\nExpression and Purification\nThe coding sequence for Aurora-B^60-361 from Xenopus laevis is cloned into a modified version of pGEX-6T (Amersham Biotech) via BamHI and SalI cutting sites. The vector contains two cloning cassettes which are separated by a ribosomal binding site, allowing bi-cistronic expression. In this configuration Xenopus laevis Aurora B is expressed by the first cassette, and the Xenopus laevis INCENP^790-847 is expressed by the second cassette. The resulting vector is pAUB-IN^847.\nFirst of all the E. coli strain BL21 (DE3) is co-transformed with pUBS520 helper plasmid and pAUB-IN^847, after which protein expression is induced using 0.3 mM IPTG at an OD600 of 0.45-0.7. The expression is then continued for approx. 12-16 h at 23-25° C. with agitation.\nThe bacteria are then removed by centrifuging and the pellet is lysed in lysis buffer (50 mM Tris/Cl pH 7.6, 300 mM NaCl, 1 mM DTT, 1 mM EDTA, 5% glycerol, Roche Complete Protease Inhibitor tablets) using ultrasound, using 20-30 mL lysis buffer per liter of E. coli culture. The lysed material is freed from debris by centrifugation (12000 rpm, 45-60 min, JA20 rotor). The supernatant is incubated with 300 μL of equilibrated GST Sepharose Fast Flow (Amersham Biosciences) per liter of E. coli culture for 4-5 h at 4° C. Then the column material is washed with 30 volumes of lysis buffer and then equilibrated with 30 volumes of cleavage buffer (50 mM Tris/Cl pH 7.6, 150 mM NaCl, 1 mM DTT, 1 mM EDTA). To cleave the GST tag from Aurora B, 10 units of Prescission Protease (Amersham Biosciences) are used per milligram of substrate and the mixture is incubated for 16 h at 4° C. The supernatant which contains the cleavage product is loaded onto a 6 mL Resource Q column (Amersham Biosciences) equilibrated with ion exchange buffer (50 mM Tris/Cl pH 7.6, 150 mM NaCl, 1 mM DTT, 1 mM EDTA). The Aurora B/INCENP complex is caught as it flows through, then concentrated and loaded onto a Superdex 200 size exclusion chromatography (SEC) column equilibrated with SEC buffer (10 mM Tris/Cl pH 7.6, 150 mM NaCl, 1 mM DTT, 1 mM EDTA). Fractions which contain the AuroraB/INCENP complex are collected and concentrated using Vivaspin concentrators (molecular weight exclusion 3000-5000 Da) to a final concentration of 12 mg/mL. Aliquots (e.g. 240 ng/μL) for kinase assays are transferred from this stock solution into freezing buffer (50 mM Tris/Cl pH 8.0, 150 mM NaCl, 0.1 mM EDTA, 0.03% Brij-35, 10% glycerol, 1 mM DTT) and stored at −80° C.\nTest substances are placed in a polypropylene dish (96 wells, Greiner #655 201), in order to cover a concentration frame of 10 μM-0.0001 μM. The final concentration of DMSO in the assay is 5%. 30 μL of protein mix (50 mM tris/Cl pH 7.5, 25 mM MgCl2, 25 mM NaCl, 167 μM ATP, 10 ng Xenopus laevis Aurora B/INCENP complex in freezing buffer) are pipetted into the 10 μl of test substance provided in 25% DMSO and this is incubated for 15 min at RT. Then 10 μL of peptide mix (100 mM tris/Cl pH 7.5, 50 mM MgCl2, 50 mM NaCl, 5 μM NaF, 5 μM DTT, 1 μCi gamma-P33-ATP [Amersham], 50 μM substrate peptide [biotin-[…] or multimers thereof, or biotin-[…] or multimers thereof, or biotin-[…]]) are added. The reaction is incubated for 75 min (ambient temperature) and stopped by the addition of 180 μL of 6.4% trichloroacetic acid and incubated for 20 min on ice. […]", "units": {"remaining activity at 1 µM": "%"}, "values": [{"smiles": "CCN1CCC2(CCN(C(=O)c3ccc(N/C(=C4\\C(=O)Nc5cc(-c6ccc(NC(C)C)nc6)ccc54)c4ccccc4)cc3)C2)C1", "note": "(stereo not drawn) [Example 117]", "remaining activity at 1 µM": 3.03}, {"smiles": "Cc1cc(N/C(=C2\\C(=O)Nc3cc(-c4cnc(NC(C)C)nc4)ccc32)c2ccccc2)ccn1", "note": "[Example 87]", "remaining activity at 1 µM": 2.67}, {"smiles": "CC(C)Nc1ncc(-c2ccc3c(c2)NC(=O)/C3=C(\\Nc2ccc(CN(C)C)cc2)c2ccccc2)cn1", "note": "[Example 46]", "remaining activity at 1 µM": 2.13}, {"smiles": "CC(C)Nc1ncc(-c2ccc3c(c2)NC(=O)/C3=C(\\Nc2ccc(N3CCN(C)[C@@H](C)C3)cc2)c2ccccc2)cn1", "note": "[Example 93]", "remaining activity at 1 µM": 2.92}, {"smiles": "CC(C)Nc1ccc(-c2ccc3c(c2)NC(=O)/C3=C(\\Nc2ccc(C(=O)N3CCCN(C4CC4)CC3)cc2)c2ccccc2)cn1", "note": "[Example 119]", "remaining activity at 1 µM": 3.54}, {"smiles": "CC(C)Nc1ccc(-c2ccc3c(c2)NC(=O)/C3=C(\\Nc2ccc(C(C)(C)C(=O)N3CCN[C@@H](C)C3)cc2)c2ccccc2)cn1", "note": "[Example 99]", "remaining activity at 1 µM": 4.64}, {"smiles": "CC(C)Nc1ccc(-c2ccc3c(c2)NC(=O)/C3=C(\\Nc2ccc(C(=O)N3CC[C@@H](N(C)C)C3)cc2)c2ccccc2)cn1", "note": "[Example 137]", "remaining activity at 1 µM": 0.67}, {"smiles": "CN(C)Cc1ccc(N/C(=C2\\C(=O)Nc3cc(-c4ccc(N(C)C)nc4)ccc32)c2ccccc2)cc1", "note": "[Example 6]", "remaining activity at 1 µM": 11.4}, {"smiles": "CC(C)Nc1ncc(-c2ccc3c(c2)NC(=O)/C3=C(\\Nc2ccc(N(C)C(=O)CN(C)C)cc2)c2ccccc2)cn1", "note": "[Example 75]", "remaining activity at 1 µM": 1.74}, {"smiles": "CCNc1cnc(-c2ccc3c(c2)NC(=O)/C3=C(\\Nc2ccc(CN(C)C)cc2)c2ccccc2)cn1", "note": "[Example 1]", "remaining activity at 1 µM": 15.2}, {"smiles": "CN(C)Cc1ccc(N/C(=C2\\C(=O)Nc3cc(-c4ccc(NCC5CC5)nc4)ccc32)c2ccccc2)cc1", "note": "[Example 55]", "remaining activity at 1 µM": 5.91}, {"smiles": "CC(C)Nc1ncc(-c2ccc3c(c2)NC(=O)/C3=C(\\Nc2cccc(CN3CCCC3)c2)c2ccccc2)cn1", "note": "[Example 91]", "remaining activity at 1 µM": 9.48}, {"smiles": "CC(C)Nc1ccc(-c2ccc3c(c2)NC(=O)/C3=C(\\Nc2ccc(C(=O)NC3CCN(C)CC3)cc2)c2ccccc2)cn1", "note": "[Example 140]", "remaining activity at 1 µM": 2.26}, {"smiles": "O=C(C#Cc1ccc2c(c1)NC(=O)/C2=C(\\Nc1ccc(CN2CCCC2)cc1)c1ccccc1)NCC(F)F", "note": "[Example 168]", "remaining activity at 1 µM": 1.85}, {"smiles": "CC(C)Nc1ccc(-c2ccc3c(c2)NC(=O)/C3=C(\\Nc2ccc(C(=O)N3C[C@@H](C)N[C@@H](C)C3)cc2)c2ccccc2)cn1", "note": "[Example 124]", "remaining activity at 1 µM": 3.38}, {"smiles": "CN(C)Cc1ccc(N/C(=C2\\C(=O)Nc3cc(C#CC(=O)NCC(F)F)ccc32)c2ccccc2)cc1", "note": "[Example 167]", "remaining activity at 1 µM": 2.96}, {"smiles": "CC(C)CN1CCN(C(=O)c2ccc(N/C(=C3\\C(=O)Nc4cc(-c5ccc(NC(C)C)nc5)ccc43)c3ccccc3)cc2)CC1", "note": "[Example 114]", "remaining activity at 1 µM": 7.11}, {"smiles": "O=C(C#Cc1ccc2c(c1)NC(=O)/C2=C(\\Nc1ccc(CN2CCCC2)cc1)c1ccccc1)Nc1ccccc1F", "note": "[Example 170]", "remaining activity at 1 µM": 1.39}, {"smiles": "COc1cc(N/C(=C2\\C(=O)Nc3cc(-c4ccc(NC(C)C)nc4)ccc32)c2ccccc2)ccc1C(=O)N1CCCN(C)CC1", "note": "[Example 105]", "remaining activity at 1 µM": 1.57}, {"smiles": "COc1ccc(-c2ccc3c(c2)NC(=O)/C3=C(\\Nc2ccc(CN(C)C)cc2)c2ccccc2)cn1", "note": "[Example 70]", "remaining activity at 1 µM": 17.3}, {"smiles": "CN(C)Cc1ccc(N/C(=C2\\C(=O)Nc3cc(C#CC(=O)Nc4ccccc4)ccc32)c2ccccc2)cc1", "note": "[Example 161]", "remaining activity at 1 µM": 1.69}, {"smiles": "CC(C)Nc1ncc(-c2ccc3c(c2)NC(=O)/C3=C(\\Nc2ccc3c(c2)CN(C)C3)c2ccccc2)cn1", "note": "[Example 94]", "remaining activity at 1 µM": 5.83}, {"smiles": "CCCNc1ncc(-c2ccc3c(c2)NC(=O)/C3=C(\\Nc2ccc(CN(C)C)cc2)c2ccccc2)cn1", "note": "[Example 50]", "remaining activity at 1 µM": 2.79}, {"smiles": "CC(C)Nc1ccc(-c2ccc3c(c2)NC(=O)/C3=C(\\Nc2ccc(C(=O)N3CCN(C)CC3)cc2)c2ccccc2)cn1", "note": "[Example 135]", "remaining activity at 1 µM": 0.77}, {"smiles": "CC(C)Nc1ncc(-c2ccc3c(c2)NC(=O)/C3=C(\\Nc2ccc(C(C)(C)C(=O)O)cc2)c2ccccc2)cn1", "note": "[Example 81]", "remaining activity at 1 µM": 1.26}, {"smiles": "CCNC(=O)C#Cc1ccc2c(c1)NC(=O)/C2=C(\\Nc1ccc(CN(C)C)cc1)c1ccccc1", "note": "[Example 162]", "remaining activity at 1 µM": 1.65}, {"smiles": "CN(C)Cc1ccc(N/C(=C2\\C(=O)Nc3cc(C#CC(=O)NC4CCCC4)ccc32)c2ccccc2)cc1", "note": "[Example 163]", "remaining activity at 1 µM": 2.08}, {"smiles": "COC(=O)c1ccc(N/C(=C2\\C(=O)Nc3cc(-c4cnc(NC(C)C)nc4)ccc32)c2ccccc2)cc1", "note": "[Example 84]", "remaining activity at 1 µM": 65.2}, {"smiles": "CN(C)Cc1ccc(N/C(=C2\\C(=O)Nc3cc(-c4cccc(S(N)(=O)=O)c4)ccc32)c2ccccc2)cc1", "note": "[Example 67]", "remaining activity at 1 µM": 5.48}, {"smiles": "CN(C)Cc1ccc(N/C(=C2\\C(=O)Nc3cc(-c4ccc(C(=O)O)nc4)ccc32)c2ccccc2)cc1", "note": "[Example 54]", "remaining activity at 1 µM": 157}, {"smiles": "CN(C)Cc1ccc(N/C(=C2\\C(=O)Nc3cc(-c4ccccc4NS(C)(=O)=O)ccc32)c2ccccc2)cc1", "note": "[Example 23]", "remaining activity at 1 µM": 70.6}, {"smiles": "CN(C)Cc1ccc(N/C(=C2\\C(=O)Nc3cc(-c4ccc5c(c4)CC(=O)N5)ccc32)c2ccccc2)cc1", "note": "[Example 60]", "remaining activity at 1 µM": 26.3}, {"smiles": "CN(C)Cc1ccc(N/C(=C2\\C(=O)Nc3cc(-c4ccc(NC5CCC5)nc4)ccc32)c2ccccc2)cc1", "note": "[Example 56]", "remaining activity at 1 µM": 5.45}, {"smiles": "C[C@H](CO)NC(=O)C#Cc1ccc2c(c1)NC(=O)/C2=C(\\Nc1ccc(CN(C)C)cc1)c1ccccc1", "note": "[Example 171]", "remaining activity at 1 µM": 3.39}, {"smiles": "CNc1ccc(N/C(=C2\\C(=O)Nc3cc(-c4cnc(NC(C)C)nc4)ccc32)c2ccccc2)cc1", "note": "[Example 85]", "remaining activity at 1 µM": 50.3}, {"smiles": "CC(C)Nc1ccc(-c2ccc3c(c2)NC(=O)/C3=C(\\Nc2ccc(C(C)(C)C(=O)NC3CCN(C)CC3)cc2)c2ccccc2)cn1", "note": "[Example 102]", "remaining activity at 1 µM": 2.07}, {"smiles": "CC(=O)Nc1ccc(-c2ccc3c(c2)NC(=O)/C3=C(\\Nc2ccc(CN(C)C)cc2)c2ccccc2)cc1", "note": "[Example 72]", "remaining activity at 1 µM": 3.37}, {"smiles": "CC(C)Nc1ccc(-c2ccc3c(c2)NC(=O)/C3=C(\\Nc2ccc(C(=O)N3CCN(CC(F)(F)F)CC3)cc2)c2ccccc2)cn1", "note": "[Example 125]", "remaining activity at 1 µM": 8.83}, {"smiles": "CN(C)Cc1ccc(N/C(=C2\\C(=O)Nc3cc(-c4cccnc4)ccc32)c2ccccc2)cc1", "note": "[Example 71]", "remaining activity at 1 µM": 24.5}, {"smiles": "CNC(=O)C#Cc1cc2c(cc1F)/C(=C(/Nc1ccc(CN(C)C)cc1)c1ccccc1)C(=O)N2", "note": "[Example 158]", "remaining activity at 1 µM": 7.53}, {"smiles": "COc1cc(N/C(=C2\\C(=O)Nc3cc(-c4ccc(NC(C)C)nc4)ccc32)c2ccccc2)ccc1C(=O)N1CCN(C)CC1", "note": "[Example 109]", "remaining activity at 1 µM": 2.08}, {"smiles": "CN(C)Cc1ccc(N/C(=C2\\C(=O)Nc3cc(C#CC(=O)NC4CCC4)ccc32)c2ccccc2)cc1", "note": "[Example 165]", "remaining activity at 1 µM": 2.4}]}]}
